Data: patent US12281301B2, “Sequencing-based proteomics” (THE BROAD INSTITUTE, INC., priority 2018, dated 2025)
Peptide text beside a SMILES is read from it. * marks the point of attachment. Cbz = O=C(OCc1ccccc1)*

Test system: clonal mNeon-tagged reporter cell lines
Test: FACS of clonal mNeon-tagged reporter cell lines after drug stimulation
Format: cell-based, human
Conditions: stimulated for six hours
Experimental: Analytical flow cytometry. For optional genomic DNA staining, 1/20 volume of Hoechst 33342 (10 mg/ml, Thermo) was added to live cells for 15 minutes at 37° C. Cells were washed in PBS, trypsinized, resuspended in media, and analyzed on a CytoFLEX (Beckman Coulter) in 96-well plate mode.

## CC(C)C[C@@H](C=O)NC(=O)[C@H](CC(C)C)NC(=O)[C@H](CC(C)C)NC(=O)OCc1ccccc1 [MG-132] (Cbz-Leu-Leu-Leu-aldehyde)
  DDIT4 regulation in clonal mNeon-tagged reporter cell line by FACS: regulated
